Results reported in ChEMBL document CHEMBL3407416, “Discovery of (R)-8-(1-(3,5-difluorophenylamino)ethyl)-N,N-dimethyl-2-morpholino-4-oxo-4H-chromene-6-carboxamide (AZD8186): a potent and selective inhibitor of PI3Kβ and PI3Kδ for the treatment of PTEN-deficient cancers” (J Med Chem, 2015).

Assays:
[1] = target: T1, Phosphatidylinositol 4,5-bisphosphate 3-kinase catalytic subunit alpha isoform (Homo sapiens, UniProt P42336); experiment: Inhibition of human recombinant PI3Kalpha using PIP2 by Kinase-Glo Plus assay
Target sequence in this assay (P42336 whole entry, canonical isoform): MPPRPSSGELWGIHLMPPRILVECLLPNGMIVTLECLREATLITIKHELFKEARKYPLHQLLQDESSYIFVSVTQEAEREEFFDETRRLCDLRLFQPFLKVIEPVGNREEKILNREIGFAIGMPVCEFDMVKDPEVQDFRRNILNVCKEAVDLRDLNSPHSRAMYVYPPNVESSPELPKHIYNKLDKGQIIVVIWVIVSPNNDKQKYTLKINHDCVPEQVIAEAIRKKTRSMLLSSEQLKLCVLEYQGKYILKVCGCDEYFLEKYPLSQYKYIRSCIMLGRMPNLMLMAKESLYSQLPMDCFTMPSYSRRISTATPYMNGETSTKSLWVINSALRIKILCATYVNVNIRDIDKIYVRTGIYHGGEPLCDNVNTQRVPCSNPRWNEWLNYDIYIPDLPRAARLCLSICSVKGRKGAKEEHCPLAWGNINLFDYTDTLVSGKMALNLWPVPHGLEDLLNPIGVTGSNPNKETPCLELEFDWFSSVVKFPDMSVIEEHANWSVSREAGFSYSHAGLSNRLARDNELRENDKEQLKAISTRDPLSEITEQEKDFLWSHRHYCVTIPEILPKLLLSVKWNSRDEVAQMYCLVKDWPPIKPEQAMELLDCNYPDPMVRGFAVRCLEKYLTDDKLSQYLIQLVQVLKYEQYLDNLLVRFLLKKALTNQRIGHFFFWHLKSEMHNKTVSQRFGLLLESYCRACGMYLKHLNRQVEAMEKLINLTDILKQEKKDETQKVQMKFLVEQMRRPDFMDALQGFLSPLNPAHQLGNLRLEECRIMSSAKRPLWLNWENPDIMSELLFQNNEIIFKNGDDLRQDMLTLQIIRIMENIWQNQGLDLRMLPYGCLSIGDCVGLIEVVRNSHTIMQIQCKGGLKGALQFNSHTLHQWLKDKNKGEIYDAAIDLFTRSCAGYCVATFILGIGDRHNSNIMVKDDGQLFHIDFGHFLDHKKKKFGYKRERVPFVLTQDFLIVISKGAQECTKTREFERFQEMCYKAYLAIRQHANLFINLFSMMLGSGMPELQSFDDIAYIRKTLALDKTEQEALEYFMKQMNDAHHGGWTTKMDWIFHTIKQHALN

[2] = target: T2, Phosphatidylinositol 4,5-bisphosphate 3-kinase catalytic subunit beta isoform (Homo sapiens, UniProt P42338); experiment: Inhibition of human recombinant PI3Kbeta using PIP2 by Kinase-Glo Plus assay
[3] = target: Phosphatidylinositol 4,5-bisphosphate 3-kinase catalytic subunit gamma isoform (Homo sapiens, UniProt P48736); experiment: Inhibition of human recombinant PI3Kgamma using PIP2 by Kinase-Glo Plus assay
[4] = target: T3, Phosphatidylinositol 4,5-bisphosphate 3-kinase catalytic subunit delta isoform (Homo sapiens, UniProt O00329); experiment: Inhibition of human recombinant PI3Kdelta using PIP2 by Kinase-Glo Plus assay
T3 sequence (O00329 whole entry): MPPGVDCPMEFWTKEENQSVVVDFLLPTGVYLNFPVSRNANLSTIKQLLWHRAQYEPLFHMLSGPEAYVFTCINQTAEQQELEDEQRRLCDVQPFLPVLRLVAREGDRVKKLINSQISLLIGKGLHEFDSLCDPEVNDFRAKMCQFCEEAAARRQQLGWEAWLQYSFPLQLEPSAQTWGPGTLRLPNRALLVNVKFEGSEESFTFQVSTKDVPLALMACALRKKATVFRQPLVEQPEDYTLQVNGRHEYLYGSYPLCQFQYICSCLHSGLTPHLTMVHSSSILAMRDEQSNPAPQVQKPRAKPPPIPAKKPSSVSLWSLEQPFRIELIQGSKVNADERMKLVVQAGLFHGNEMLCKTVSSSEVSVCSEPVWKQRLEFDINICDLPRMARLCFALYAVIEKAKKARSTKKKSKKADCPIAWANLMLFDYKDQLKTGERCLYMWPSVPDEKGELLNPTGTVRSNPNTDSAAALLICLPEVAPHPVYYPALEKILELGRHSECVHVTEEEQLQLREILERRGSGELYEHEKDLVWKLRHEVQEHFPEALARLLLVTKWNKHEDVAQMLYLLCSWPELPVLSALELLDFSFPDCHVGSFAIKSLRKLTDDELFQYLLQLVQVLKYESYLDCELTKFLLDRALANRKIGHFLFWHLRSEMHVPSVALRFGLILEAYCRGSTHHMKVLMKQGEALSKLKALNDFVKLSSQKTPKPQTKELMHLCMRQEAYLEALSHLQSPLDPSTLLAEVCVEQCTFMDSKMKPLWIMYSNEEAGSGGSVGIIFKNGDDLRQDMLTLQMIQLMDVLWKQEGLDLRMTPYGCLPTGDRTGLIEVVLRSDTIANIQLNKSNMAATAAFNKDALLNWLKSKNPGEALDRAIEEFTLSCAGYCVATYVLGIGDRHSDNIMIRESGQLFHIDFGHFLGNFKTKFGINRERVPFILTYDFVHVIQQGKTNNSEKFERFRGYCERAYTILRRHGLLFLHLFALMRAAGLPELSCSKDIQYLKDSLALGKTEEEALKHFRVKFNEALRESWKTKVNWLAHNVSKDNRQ

[5] = target: T1, Phosphatidylinositol 4,5-bisphosphate 3-kinase catalytic subunit alpha isoform; experiment: Inhibition of PI3Kalpha mutant human BT474 cells assessed as inhibition of Akt phosphorylation at […] after 2 hrs; assay type: cell-based; details: bt-474
Target sequence in this assay (P42336 whole entry, looked up, canonical isoform): as the sequence (P42336 whole entry, canonical isoform) above

[6] = target: T2, Phosphatidylinositol 4,5-bisphosphate 3-kinase catalytic subunit beta isoform; experiment: Inhibition of PI3Kbeta in PTEN-null human MDA-MB-468 cells assessed as inhibition of Akt phosphorylation after 2 hrs; assay type: cell-based
[7] = Lipophilicity, log D of the compound at pH 7.4 by shake-flask method; assay type: physicochemical; details: buffer
[8] = Intrinsic clearance in cryopreserved human hepatocytes measured per 10^6 cells; assay type: ADME, cell-based, Hepatocyte; details: read-out: CLH
[9] = Apparent permeability from apical to basolateral side of human Caco2 cells; assay type: ADME, cell-based; details: Caco-2, read-out: permeability

Sequence of Phosphatidylinositol 4,5-bisphosphate 3-kinase catalytic subunit gamma isoform (P48736 whole entry, canonical isoform): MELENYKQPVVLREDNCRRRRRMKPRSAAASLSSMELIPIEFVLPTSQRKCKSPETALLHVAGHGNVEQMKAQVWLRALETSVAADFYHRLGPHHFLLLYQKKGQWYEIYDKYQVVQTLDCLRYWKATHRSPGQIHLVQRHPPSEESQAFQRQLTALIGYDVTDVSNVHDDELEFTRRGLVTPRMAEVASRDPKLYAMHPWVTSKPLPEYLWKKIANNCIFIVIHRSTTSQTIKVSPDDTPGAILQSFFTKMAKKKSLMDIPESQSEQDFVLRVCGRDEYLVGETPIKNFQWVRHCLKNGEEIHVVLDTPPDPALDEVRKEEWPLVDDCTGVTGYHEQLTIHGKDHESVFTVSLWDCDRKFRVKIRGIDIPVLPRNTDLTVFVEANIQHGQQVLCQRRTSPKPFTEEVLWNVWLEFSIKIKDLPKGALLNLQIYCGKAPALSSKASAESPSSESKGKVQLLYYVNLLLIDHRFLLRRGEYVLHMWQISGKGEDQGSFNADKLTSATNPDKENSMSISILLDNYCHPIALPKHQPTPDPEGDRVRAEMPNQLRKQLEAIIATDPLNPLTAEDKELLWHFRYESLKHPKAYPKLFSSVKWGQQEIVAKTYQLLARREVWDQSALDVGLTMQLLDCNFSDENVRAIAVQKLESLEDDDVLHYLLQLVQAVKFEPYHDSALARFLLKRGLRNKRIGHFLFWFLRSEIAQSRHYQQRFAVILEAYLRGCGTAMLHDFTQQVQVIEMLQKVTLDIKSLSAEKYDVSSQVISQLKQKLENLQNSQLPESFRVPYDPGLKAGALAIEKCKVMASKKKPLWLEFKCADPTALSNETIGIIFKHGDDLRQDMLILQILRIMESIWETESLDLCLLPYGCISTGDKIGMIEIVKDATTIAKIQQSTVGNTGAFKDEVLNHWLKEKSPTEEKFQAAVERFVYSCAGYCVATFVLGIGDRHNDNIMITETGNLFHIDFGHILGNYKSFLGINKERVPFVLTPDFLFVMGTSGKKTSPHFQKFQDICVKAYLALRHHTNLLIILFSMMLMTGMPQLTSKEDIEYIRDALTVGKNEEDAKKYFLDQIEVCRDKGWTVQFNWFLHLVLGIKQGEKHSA
T2 sequence (P42338 whole entry, canonical isoform): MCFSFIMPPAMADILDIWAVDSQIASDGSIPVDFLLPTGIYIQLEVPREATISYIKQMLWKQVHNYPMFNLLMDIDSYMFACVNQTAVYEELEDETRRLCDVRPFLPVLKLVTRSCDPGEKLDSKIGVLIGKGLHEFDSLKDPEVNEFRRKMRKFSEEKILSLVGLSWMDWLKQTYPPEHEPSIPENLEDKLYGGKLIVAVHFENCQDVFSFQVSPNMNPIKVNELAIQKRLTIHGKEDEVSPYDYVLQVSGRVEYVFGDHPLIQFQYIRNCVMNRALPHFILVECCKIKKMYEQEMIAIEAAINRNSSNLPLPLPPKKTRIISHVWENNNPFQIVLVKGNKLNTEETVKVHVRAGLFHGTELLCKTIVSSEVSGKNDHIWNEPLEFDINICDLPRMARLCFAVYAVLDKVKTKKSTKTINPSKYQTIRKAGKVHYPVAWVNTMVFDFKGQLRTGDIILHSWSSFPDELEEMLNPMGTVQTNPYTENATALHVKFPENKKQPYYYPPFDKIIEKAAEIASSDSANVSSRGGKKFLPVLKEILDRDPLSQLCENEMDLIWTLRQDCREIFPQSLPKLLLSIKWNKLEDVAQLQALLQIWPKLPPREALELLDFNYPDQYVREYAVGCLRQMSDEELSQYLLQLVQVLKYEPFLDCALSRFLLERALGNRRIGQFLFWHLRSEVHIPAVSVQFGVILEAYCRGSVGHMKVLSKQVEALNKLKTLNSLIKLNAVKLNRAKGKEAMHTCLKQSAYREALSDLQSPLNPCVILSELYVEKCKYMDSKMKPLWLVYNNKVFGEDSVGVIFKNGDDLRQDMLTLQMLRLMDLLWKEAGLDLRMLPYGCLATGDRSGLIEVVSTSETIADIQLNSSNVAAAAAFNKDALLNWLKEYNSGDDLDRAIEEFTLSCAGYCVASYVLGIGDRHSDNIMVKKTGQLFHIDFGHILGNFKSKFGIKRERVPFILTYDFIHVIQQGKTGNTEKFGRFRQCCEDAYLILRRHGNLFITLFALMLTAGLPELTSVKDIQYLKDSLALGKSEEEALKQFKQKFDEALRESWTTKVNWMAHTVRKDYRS

SMILES | IC50 [1] [nM] | IC50 [2] [nM] | IC50 [3] [nM] | IC50 [4] [nM] | IC50 [5] [nM] | IC50 [6] [nM] | logD [7] | hepatocyte CLint [8] [µL/min/1e6 cells] | Papp A→B [9] [×10⁻⁶ cm/s]
CNC(=O)c1cc([C@@H](C)Nc2cc(F)cc(F)c2)c2oc(N3CCOCC3)cc(=O)c2c1 | 18 | 6 | 250 | 14 | 960 | 3 | 2.8 | < 3 | 3.5
CC(Nc1cccc(F)c1F)c1cc(C(=O)N(C)C)cc2c(=O)cc(N3CCOCC3)oc12 (racemic) | 370 | 13 | 4200 | 76 | 2200 | 24 | 1.9 | < 3 | 13
CC(Nc1cccc(Cl)c1)c1cc(C(=O)N(C)C)cc2c(=O)cc(N3CCOCC3)oc12 (racemic) | 85 | 10 | 700 | 73 | 790 | 9 | 2.5 | < 4 | 
COCCN(C)C(=O)c1cc(C(C)Nc2cc(F)cc(F)c2)c2oc(N3CCOCC3)cc(=O)c2c1 (racemic) | 290 | 11 | 2600 | 160 | 2600 |  | 2.2 | 6 | 
CC(Nc1ccc(F)cc1)c1cc(C(=O)N(C)C)cc2c(=O)cc(N3CCOCC3)oc12 (racemic) | 810 | 18 | 13000 | 110 | 12400 | 128 | 1.5 | < 3 | 
CC(Nc1cc(Cl)cc(Cl)c1)c1cc(C(=O)N(C)C)cc2c(=O)cc(N3CCOCC3)oc12 (racemic) | 110 | 10 | 630 | 52 | 1900 | 17 | 3.2 | 18 | 
CC(Nc1cc(F)cc(F)c1)c1cc(C(=O)N2CCOCC2)cc2c(=O)cc(N3CCOCC3)oc12 (racemic) | 300 | 11 | 2400 | 115 | 6000 | 33 | 1.7 | < 3 | 4.8
